From PubChem BioAssay (NCI)
Several values for one entry are separate records, joined by “and”; a condition that tells them apart may be missing. Identical values can stand only once.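 Method: 48-hour compound exposure of cells in 96-well plates, five concentrations, linear interpolation of endpoints. Here, GI50 denotes the concentration required for 50% inhibition of growth. TGI: total growth inhibition.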

Experiments:
Experiment in all cases: NCI anticancer screen, dose series, 48 h
A549 NSCLC = test system: A549 NSCLC
ACHN renal = test system: ACHN renal
NCI-H460 lung = test system: NCI-H460 lung
CAKI-1 renal = test system: CAKI-1 renal
OVCAR-4 ovarian = test system: OVCAR-4 ovarian
OVCAR-5 ovarian = test system: OVCAR-5 ovarian
COLO 205 colon = test system: COLO 205 colon
IGROV1 ovarian = test system: IGROV1 ovarian
SNB-19 CNS = test system: SNB-19 CNS
CCRF-CEM leukemia = test system: CCRF-CEM leukemia
PC-3 prostate = test system: PC-3 prostate
U251 CNS = test system: U251 CNS
HCT-116 colon = test system: HCT-116 colon
A498 renal = test system: A498 renal
OVCAR-8 ovarian = test system: OVCAR-8 ovarian
HCT-15 colon = test system: HCT-15 colon
T-47D breast = test system: T-47D breast
MCF7 breast = test system: MCF7 breast
786-0 renal = test system: 786-0 renal
M14 melanoma = test system: M14 melanoma
EKVX NSCLC = test system: EKVX NSCLC
HCC-2998 colon = test system: HCC-2998 colon
UACC-257 melanoma = test system: UACC-257 melanoma
SF-268 CNS = test system: SF-268 CNS
UO-31 renal = test system: UO-31 renal
HS 578T breast = test system: HS 578T breast
MDA-N = test system: MDA-N
NCI/ADR-RES ovarian = test system: NCI/ADR-RES ovarian
SK-OV-3 ovarian = test system: SK-OV-3 ovarian
LOX IMVI melanoma = test system: LOX IMVI melanoma
MDA-MB-231 breast = test system: MDA-MB-231 breast
NCI-H226 lung = test system: NCI-H226 lung
NCI-H23 lung = test system: NCI-H23 lung
MOLT-4 leukemia = test system: MOLT-4 leukemia
SN12C renal = test system: SN12C renal
SK-MEL-2 melanoma = test system: SK-MEL-2 melanoma
DU-145 prostate = test system: DU-145 prostate
RPMI-8226 leukemia = test system: RPMI-8226 leukemia
UACC-62 melanoma = test system: UACC-62 melanoma
NCI-H522 lung = test system: NCI-H522 lung
SW-620 colon = test system: SW-620 colon
K-562 leukemia = test system: K-562 leukemia
HL-60(TB) leukemia = test system: HL-60(TB) leukemia
SF-295 CNS = test system: SF-295 CNS
BT-549 breast = test system: BT-549 breast
HOP-62 NSCLC = test system: HOP-62 NSCLC
KM12 colon = test system: KM12 colon
SK-MEL-28 melanoma = test system: SK-MEL-28 melanoma
MALME-3M melanoma = test system: MALME-3M melanoma
HOP-92 NSCLC = test system: HOP-92 NSCLC
MDA-MB-435 = test system: MDA-MB-435
SR leukemia = test system: SR leukemia
HT29 colon = test system: HT29 colon
RXF 393 renal = test system: RXF 393 renal

## Cc1cnc2[nH]c(-c3cccc4ccccc34)cc(=O)c2c1
A549 NSCLC
  TGI: > 100 µM
ACHN renal
  TGI: 64.6 µM
NCI-H460 lung
  TGI: > 100 µM
CAKI-1 renal
  TGI: > 100 µM
OVCAR-4 ovarian
  TGI: > 100 µM
OVCAR-5 ovarian
  TGI: > 100 µM
COLO 205 colon
  TGI: 0.00496 µM
IGROV1 ovarian
  TGI: 43.5 µM
SNB-19 CNS
  TGI: > 100 µM
CCRF-CEM leukemia
  TGI: > 100 µM
PC-3 prostate
  TGI: > 100 µM
U251 CNS
  TGI: 0.0129 µM
HCT-116 colon
  TGI: > 100 µM
A498 renal
  TGI: 0.00286 µM
OVCAR-8 ovarian
  TGI: 0.108 µM
HCT-15 colon
  TGI: 0.935 µM
T-47D breast
  TGI: > 100 µM
MCF7 breast
  TGI: 41.6 µM
786-0 renal
  TGI: > 100 µM
M14 melanoma
  TGI: > 100 µM
EKVX NSCLC
  TGI: > 100 µM
HCC-2998 colon
  TGI: 0.029 µM and 0.0576 µM
UACC-257 melanoma
  GI50: 15 µM
  TGI: > 100 µM
SF-268 CNS
  GI50: 6.51 µM
  TGI: > 100 µM
UO-31 renal
  TGI: 34 µM
HS 578T breast
  TGI: > 100 µM
MDA-N
  TGI: 0.000572 µM
NCI/ADR-RES ovarian
  TGI: > 100 µM
SK-OV-3 ovarian
  TGI: 0.0952 µM
LOX IMVI melanoma
  TGI: 79.6 µM
MDA-MB-231 breast
  GI50: 0.0119 µM
NCI-H226 lung
  TGI: 59.9 µM
NCI-H23 lung
  TGI: > 100 µM
MOLT-4 leukemia
  TGI: > 100 µM
SN12C renal
  GI50: 0.042 µM
  TGI: > 100 µM
SK-MEL-2 melanoma
  TGI: > 100 µM
DU-145 prostate
  TGI: > 100 µM
RPMI-8226 leukemia
  TGI: 28.2 µM
UACC-62 melanoma
  TGI: > 100 µM
NCI-H522 lung
  TGI: 0.00072 µM
SW-620 colon
  TGI: > 100 µM
K-562 leukemia
  TGI: > 100 µM
HL-60(TB) leukemia
  TGI: 0.000577 µM
SF-295 CNS
  TGI: > 100 µM
BT-549 breast
  TGI: > 100 µM
HOP-62 NSCLC
  GI50: 0.127 µM
  TGI: > 100 µM
KM12 colon
  TGI: 0.25 µM and 1.45 µM
SK-MEL-28 melanoma
  TGI: > 100 µM
MALME-3M melanoma
  TGI: 0.000989 µM
HOP-92 NSCLC
  GI50: 0.0464 µM
  TGI: 33.5 µM
MDA-MB-435
  TGI: 0.000499 µM
SR leukemia
  TGI: > 100 µM
HT29 colon
  TGI: 0.0121 µM and 0.0273 µM
RXF 393 renal
  TGI: 0.0923 µM
